Results: patent publication US20150141411A1, “SUBSTITUTED 3,4-DIHYDRO-2H-PYRIDO[1,2-A]PYRAZINE-1,6-DIONE DERIVATIVES USEFUL FOR THE TREATMENT OF (INTER ALIA) ALZHEIMER'S DISEASE” (Janssen Pharmaceuticals, Inc., priority 2012, published 2015)

How the values were obtained:
Design in all cases: species or system mouse
Aβ42 = experiment: In vivo efficacy: brain soluble Aβ42 in non-transgenic rodents (MSD electrochemiluminescence multiplex); details: Mus musculus, po, 4 h, dose 30 mg/kg oral dosing, brain soluble fraction, animals sacrificed after 4 h, untreated animals (Ctrl) set at 100, read-out: Aβ42 (% vs Ctrl)_Mean
From the text: (§1) To determine whether acute administration of an Aβ42 lowering agent would reduce Aβ42 levels in vivo, non-transgenic rodents, e.g. mice or rats were used. Animals treated with the Aβ42 lowering agent were examined and compared to those untreated or treated with vehicle and brain levels of soluble Aβ42, Aβ40, Aβ38, and Aβ37 were quantitated by Meso Scale Discovery's (MSD) electrochemiluminescence detection technology. Treatment periods varied from hours (h) to days and were adjusted based on the results of the Aβ42 lowering once a time course of onset of effect could be established.
(§2) A typical protocol for measuring Aβ42 lowering in vivo is shown but it is only one of many variations that could be used to optimize the levels of detectable Aβ. For example, Aβ42 lowering compounds were formulated in 20% of Captisol® (a sulfo-butyl ether of β-cyclodextrin) in water or 20% hydroxypropyl βcyclodextrin. The Aβ42 lowering agents were administered as a single oral dose or by any acceptable route of administration to overnight fasted animals. After 4 h, the animals were sacrificed and Aβ42 levels were analysed.
(§3) Blood was collected by decapitation and exsanguinations in EDTA-treated collection tubes. Blood was centrifuged at 1900 g for 10 minutes (min) at 4° C. and the plasma recovered and flash frozen for later analysis. The brain was removed from the cranium and hindbrain. The cerebellum was removed and the left and right hemisphere were separated. The left hemisphere was stored at −18° C. for quantitative analysis of test compound levels. The right hemisphere was rinsed with phosphate-buffered saline (PBS) buffer and immediately frozen on dry ice and stored at −80° C. until homogenization for biochemical assays.
(§4) Mouse brains from non-transgenic animals were resuspended in 8 volumes of 0.4% DEA (diethylamine)/50 mM NaCl containing protease inhibitors (Roche-11873580001 or 04693159001) per gram of tissue, e.g. for 0.158 g brain, add 1.264 ml of 0.4% DEA. All samples were homogenized in the FastPrep-24 system (MP Biomedicals) using lysing matrix D (MPBio #6913-100) at 6 m/s for 20 seconds. Homogenates were centrifuged at 20800×g for 5 min and supernatants collected. Supernatants were centrifuged at 221.300×g for 50 min. The resulting high speed supernatants were then transferred to fresh eppendorf tubes. Nine parts of supernatant were neutralized with 1 part 0.5 M Tris-HCl pH 6.8 and used to quantify Aβ.
(§5) To quantify the amount of Aβ42, Aβ40, Aβ38, and Aβ37 in the soluble fraction of the brain homogenates, simultaneous specific detection of Aβ42, Aβ40, Aβ38, and Aβ37 was performed using MSD's electro-chemiluminescence multiplex detection technology. In this assay purified monoclonal antibodies specific for Abeta37 (JRD/Aβ37/3), Abeta38 (J&JPRD/Aβ38/5), Abeta40 (JRF/cAβ40/28), and Abeta42 (JRF/cAβ42/26) were coated on MSD 4-plex plates. Briefly, the standards (a dilution of synthetic Aβ42, Aβ40, Aβ38, and Aβ37) were prepared in 1.5 ml Eppendorf tube in Ultraculture, with final concentrations ranging from 10000 to 0.3 pg/m. The samples and standards were co-incubated with Sulfo-tag labelled JRF/rAβ/2 antibody to the N-terminus of Aβ as detector antibody. 50 μl of conjugate/sample or conjugate/standards mixtures were then added to the antibody-coated plate. The plate was allowed to incubate overnight at 4° C. in order to allow formation of the antibody-amyloid complex. Following this incubation and subsequent wash steps the assay was finished by adding read buffer according to the manufacturer's instructions (Meso Scale Discovery, Gaitherburg, Md.).
(§6) The SULFO-TAG emits light upon electrochemical stimulation initiated at the electrode. MSD Sector instrument SI6000 was used for signal read-out.
In this model a Aβ42 lowering compared to untreated animals would be advantageous, in particular a Aβ42 lowering with at least 10%, more in particular a Aβ42 lowering with at least 20%. […]

Aβ38 = experiment: In vivo efficacy: brain soluble Aβ38 in non-transgenic rodents (MSD electrochemiluminescence multiplex); details: Mus musculus, po, 4 h, dose 30 mg/kg oral dosing, brain soluble fraction, animals sacrificed after 4 h, untreated animals (Ctrl) set at 100, read-out: Aβ38 (% vs Ctrl)_Mean
From the text: as §1, with “Aβ38 increasing agents” for “Aβ42 lowering agent”, “increase Aβ38” for “reduce Aβ42”, “MSD” for “Meso Scale Discovery's (MSD)”, “Aβ38 increase” for “Aβ42 lowering”
as §2, with “measuring Aβ38 increase” for “measuring Aβ42 lowering”, “example, Aβ38 increasing agents” for “example, Aβ42 lowering compounds”, “(a sulfobutyl” for “(a sulfo-butyl”, “The Aβ38 increasing” for “The Aβ42 lowering”, “and Aβ38” for “and Aβ42”
as §3, §4
as §5, with “(MesoScale” for “(Meso Scale”
as §6
In this model a Aβ38 increase compared to untreated animals would be advantageous, in particular a Aβ38 increase with at least 10%, more in particular a Aβ38 increase with at least 20%. […]

Aβ40 = experiment: In vivo efficacy: brain soluble Aβ40 in non-transgenic rodents (MSD electrochemiluminescence multiplex); details: Mus musculus, po, 4 h, dose 30 mg/kg oral dosing, brain soluble fraction, animals sacrificed after 4 h, untreated animals (Ctrl) set at 100, read-out: Aβ40 (% vs Ctrl)_Mean
From the text: as §1, §2, §3, §4, §5, §6
The results are shown in Table 5 (dose 30 mg/kg oral dosing) (value for untreated animals as control (Ctrl) was set at 100): […]

Cc1cn(-c2ccc3n(c2=O)CC(C)N(Cc2c[nH]c4cc(C(F)(F)F)ccc24)C3=O)cn1 (stereo not drawn) [compound 203]
response vs control in vivo at 30 mg/kg (Aβ42): 67%
response vs control in vivo at 30 mg/kg (Aβ38): 133%
response vs control in vivo at 30 mg/kg (Aβ40): 137%
